Here are results for 21 compounds from patent US10035790B2, “RORγ modulators” (BRISTOL-MYERS SQUIBB COMPANY, priority 2012, dated 2018).

One may read the IC50 as the concentration needed to halve the response being measured.

The target of the assay is T1, ligand binding domain of human RORγ (A262-S507) (Homo sapiens, UniProt P51449).
T1 construct: made in house; host or cells: E. coli
T1 sequence (P51449 262-507): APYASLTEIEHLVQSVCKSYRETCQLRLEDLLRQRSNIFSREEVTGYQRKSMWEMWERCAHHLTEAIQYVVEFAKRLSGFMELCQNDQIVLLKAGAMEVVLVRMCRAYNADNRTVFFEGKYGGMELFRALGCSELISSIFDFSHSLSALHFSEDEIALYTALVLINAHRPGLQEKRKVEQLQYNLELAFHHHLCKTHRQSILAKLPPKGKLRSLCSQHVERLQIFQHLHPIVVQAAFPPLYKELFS
As to the kind of experiment: General RORγ SPA binding assay (competition with [3H]25-hydroxycholesterol). Particulars: RORγ SPA binding assay, inhibition of [3H]25-hydroxycholesterol binding; read-out: IC50. The method, then:
Example 2 General RORγ SPA Binding Assay
The binding of potential ligands to RORγ is measured by competition with [^3H]25-hydroxycholesterol using a scintillation proximity assay (SPA) binding assay. The ligand binding domain of human RORγ (A262-S507) with an N-terminal His tag is expressed in E. coli and purified using nickel affinity chromotography. 50 nM RORγ (A262-S507) is incubated with test compound at varying concentrations for 15 min at room temperature in PBS buffer containing 0.5% fatty acid free BSA. […] of [^3H]25-hydroxycholesterol is then added, and the reaction is incubated for 15 min. 4 mg/mL of Ysi Copper HIS-TAG SPA Beads (Perkin Elmer) are added, and the mixture is incubated for 30 min. The reaction is read on a MicroBeta Trilux scintillation plate reader (Perkin Elmer). IC50 values are determined from the percentage inhibition of [^3H]25-hydroxycholesterol binding.
For the compound `CCc1ncc(C(=O)NCc2cccc(Cl)c2)c(C2CCN(C(=O)Cc3c(F)cccc3F)CC2)n1` [Compound A48, N-(3-chlorobenzyl)-4-(1-(2-(2,6-difluorophenyl)acetyl)piperidin-4-yl)-2-ethylpyrimidine-5-carboxamide], the IC50 is 6.7 nM.
`Cc1ncc(C(C)(O)COc2cccc(C(F)(F)F)n2)c(C2CCN(C(=O)Cc3c(F)cccc3F)CC2)n1` (stereo not drawn) [Compound D24, 2-(4-{1-[(2,6-difluorophenyl)acetyl]piperidin-4-yl}-2-methylpyrimidin-5-yl)-1-{[6-(trifluoromethyl)pyridin-2-yl]oxy}propan-2-ol]: the IC50 worked out at 5 nM.
As for `Cc1nc(N)nc(C2CCN(C(=O)Nc3c(F)cccc3F)CC2)c1-c1ncc(-c2ccnc(C(F)(F)F)n2)o1` [Compound C69, 4-(2-amino-6-methyl-5-{5-[2-(trifluoromethyl)pyrimidin-4-yl]-1,3-oxazol-2-yl}pyrimidin-4-yl)-N-(2,6-difluorophenyl)piperidine-1-carboxamide], the figure is 30.8 nM.
`Cc1nc(C)c(-c2nnc(-c3ccnc(Cl)c3)o2)c(C2CCN(C(=O)Cc3c(F)cccc3F)CC2)n1` [Compound C22, 1-(4-(5-(5-(2-chloropyridin-4-yl)-1,3,4-oxadiazol-2-yl)-2,6-dimethylpyrimidin-4-yl)piperidin-1-yl)-2-(2,6-difluorophenyl)ethanone]: the IC50 is 3960 nM.
For the compound `Cc1ncc(C(O)(COc2cccc(C(F)(F)F)n2)C(=O)O)c(C2CCN(C(=O)Nc3c(F)cccc3F)CC2)n1` (stereo not drawn) [Compound N44, 2-[4-(1-{[(2,6-Difluorophenyl)amino]carbonyl}piperidin-4-yl)-2-methylpyrimidin-5-yl]-2-hydroxy-3-{[6-(trifluoromethyl)pyridin-2-yl]oxy}propanoic acid], the IC50 came to 899 nM.
As to `Cc1cc(C)cc(CNC(=O)c2cnc(C)nc2C2CCN(C(=O)C3(c4ccccc4F)CCCC3)CC2)c1` [Compound A31], the IC50 was 1630 nM.
Consider `Cc1ncc(/C(CF)=N/Oc2ccnc(C(F)(F)F)n2)c(C2CCN(C(=O)Cc3c(F)cccc3F)CC2(F)F)n1` (stereo not drawn) [Compound B35, (Z)-1-(3,3-Difluoro-4-(5-(2-fluoro-1-(2-(trifluoromethyl)pyrimidin-4-yloxyimino)ethyl)-2-methylpyrimidin-4-yl)piperidin-1-yl)-2-(2,6-difluorophenyl)ethanone], for which the IC50 worked out at 14.2 nM.
As for `Cc1cc(C)cc(CNC(=O)c2cnc(C)nc2C2CCN(C(=O)Cc3ccccc3C(F)(F)F)CC2)c1` [Compound A5, N-(3,5-dimethylbenzyl)-2-methyl-4-(1-(2-(2-(trifluoromethyl)phenyl)acetyl)piperidin-4-yl)pyrimidine-5-carboxamide], the figure is 8.9 nM; as for `Nc1ncc(C(=O)COc2ccnc(C(F)(F)F)n2)c(C2CCN(C(=O)Nc3c(F)cccc3F)CC2)n1` [Compound M6, 4-[2-Amino-5-({[2-(trifluoromethyl)pyrimidin-4-yl]oxy}acetyl)pyrimidin-4-yl]-N-(2,6-difluorophenyl)piperidine-1-carboxamide], 12.2 nM.
With `COc1nc(C)c(C(O)COc2ccnc(C(F)(F)F)n2)c(C2CCN(C(=O)Nc3c(F)cccc3F)CC2)n1` (stereo not drawn) [Compound N8, N-(2,6-Difluorophenyl)-4-[5-(1-hydroxy-2-{[2-(trifluoromethyl)pyrimidin-4-yl]oxy}ethyl)-6-methyl-2-(methyloxy)pyrimidin-4-yl]piperidine-1-carboxamide] the figure was 4.8 nM; with `Cc1ncc(C(=O)NCc2ccc(Cl)c(Cl)c2)c(C2CCN(C(=O)Cc3c(F)cccc3F)CC2)n1` [Compound A2, N-(3,4-dichlorobenzyl)-4-(1-(2-(2,6-difluorophenyl)acetyl)piperidin-4-yl)-2-methylpyrimidine-5-carboxamide], 6.8 nM; with `Cc1ncc(C(O)(CN)COc2cccc(C(F)(F)F)n2)c(C2CCN(C(=O)Nc3c(F)cccc3F)CC2)n1` (stereo not drawn) [Compound N34, 4-{5-[2-Amino-1-hydroxy-1-({[6-(trifluoromethyl)pyridin-2-yl]oxy}methyl)ethyl]-2-methylpyrimidin-4-yl}-N-(2,6-difluorophenyl)piperidine-1-carboxamide], 12.8 nM.
With `Cc1ncc(C(=NOc2cccc(F)c2)C(F)(F)F)c(C2CCN(C(=O)Cc3c(F)cccc3F)CC2)n1` (mixture of isomers) [Compound B29, (Z)-2-(2,6-Difluorophenyl)-1-(4-(2-methyl-5-(2,2,2-trifluoro-1-(3-fluorophenoxyimino)ethyl)pyrimidin-4-yl)piperidin-1-yl)ethanone] the figure was 3720 nM; with `Cc1ncc(C(C)(C)OCc2cccc(Cl)c2)c(C2CCN(C(=O)Cc3c(F)cccc3F)CC2)n1` [Compound E6, 1-(4-(5-(2-((3-chlorobenzyl)oxy)propan-2-yl)-2-methylpyrimidin-4-yl)piperidin-1-yl)-2-(2,6-difluorophenyl)ethanone], 45.7 nM.
`Cc1cc(C)cc(CNC(=O)c2cnc(C)nc2C2CCN(C(=O)C3(c4ccccc4)CC3)CC2)c1` [Compound A32, N-(3,5-dimethylbenzyl)-2-methyl-4-(1-(1-phenylcyclopropanecarbonyl)piperidin-4-yl)pyrimidine-5-carboxamide]: the IC50 was 1690 nM.
In the case of `Cc1ncc(C(O)(CO)COc2cccc(C(F)(F)F)n2)c(C2CCN(C(=O)Nc3c(F)cccc3F)CC2)n1` (stereo not drawn) [Compound N32, N-(2,6-Difluorophenyl)-4-{5-[1,2-dihydroxy-1-({[6-(trifluoromethyl)pyridin-2-yl]oxy}methyl)ethyl]-2-methylpyrimidin-4-yl}piperidine-1-carboxamide], the IC50 is 5.7 nM.
Turning to `COc1nc(C)c(-c2nnc(-c3cccc(C(F)(F)F)n3)o2)c(C2CCN(C(=O)Nc3c(F)cccc3F)CC2)n1` [Compound C60, N-(2,6-Difluorophenyl)-4-[6-methyl-2-(methyloxy)-5-{5-[6-(trifluoromethyl)pyridin-2-yl]-1,3,4-oxadiazol-2-yl}pyrimidin-4-yl]piperidine-1-carboxamide], the IC50 was 204 nM.
Consider `Cc1nc(C)c(-c2nnc(-c3cc(Cl)ccn3)o2)c(C2CCN(C(=O)Cc3c(F)cccc3F)CC2)n1` [Compound C21, 1-(4-(5-(5-(4-chloropyridin-2-yl)-1,3,4-oxadiazol-2-yl)-2,6-dimethylpyrimidin-4-yl)piperidin-1-yl)-2-(2,6-difluorophenyl)ethanone], for which the IC50 was 3010 nM.
`COc1nc(C)nc(C2CCN(C(=O)Cc3c(F)cccc3F)CC2)c1C(=O)NCc1cccc(Cl)c1` [Compound A111, N-(3-Chlorobenzyl)-4-(1-(2-(2,6-difluorophenyl)acetyl)piperidin-4-yl)-6-methoxy-2-methylpyrimidine-5-carboxamide]: the IC50 is 9.8 nM.
For `Cc1ncc(C(=O)NOc2ccccc2)c(C2CCN(C(=O)Cc3c(F)cccc3F)CC2)n1` [Compound H7, 4-(1-(2-(2,6-difluorophenyl)acetyl)piperidin-4-yl)-2-methyl-N-phenoxypyrimidine-5-carboxamide], the IC50 was found to be 1750 nM.
Consider `CCOc1ncc(C(=O)NCc2cccc(Cl)c2)c(C2CCN(C(=O)Cc3c(F)cccc3F)CC2)n1` [Compound A93, N-(3-chlorobenzyl)-4-(1-(2-(2,6-difluorophenyl)acetyl)piperidin-4-yl)-2-ethoxypyrimidine-5-carboxamide], for which the IC50 came to 16 nM.
